This is an account of results in article PMC8921064 (Archives of Toxicology, 2022).

Structures are written as SMILES.

Data set [1] has as its system rat liver microsomes (RLM). Description: Rat liver microsomal incubation, metabolite formation quantified by UPLC. To be noted: RLM. As for the experimental part:
(§1) The incubation mixtures were prepared and incubated in glass vials to avoid plastic binding of the substrates. The glass vials were capped to prevent substrate loss due to volatility. After preincubation of the incubation mixture at 37 °C for 1 min, the enzymatic reaction was initiated by adding microsomes to the incubation mixture which was subsequently incubated at 37 °C for 20 min. The reaction was terminated by adding 100 µl ice-cold acetonitrile followed by vortexing. After 5 min centrifugation at 5000 rpm (4000 × g), 4 °C, the supernatant was collected for ultraperformance liquid chromatography (UPLC) analysis. […] Therefore, a diisopropylether (DIPE) extraction of the metabolites was performed after the reaction was stopped by the addition of 20 µl 10% HClO4. To this end, the incubation mixture (total volume of 220 µl) was extracted three times with 1 ml DIPE. Each time, the upper organic layer was collected and the DIPE was subsequently evaporated from the combined organic fractions with a gentle stream of nitrogen. The residues were dissolved in 100 µl methanol and analyzed by UPLC.
(§2) The metabolites formed were analyzed and quantified using an Acquity UPLC system equipped with a photodiode array (PDA) detector (Waters, Milford, MA). The metabolites and their parent compound were separated on a reverse phase Acquity UPLC® BEH C18 column ([…], 1.7 µm, Waters, Milford, MA) and detected at wavelengths ranging from 190 to 400 nm. Eluent A was nano-pure water containing 0.1% trifluoroacetic acid (v/v), and eluent B was acetonitrile containing 0.1% trifluoroacetic acid (v/v). The gradient elution started from 90% A and 10% B applied from 0.0 min to 0.5 min, which was changed to 0% A and 100% B from 0.5 to 15.5 min and then kept at 0% A and 100% B from 15.5 min to 18.5 min, changed back to 90% A and 10% B from 18.5 to 18.6 min and then maintained at the starting conditions from 18.6 min until 22 min. The total run time was 22 min using a flow rate of 0.6 ml/min. The temperature of the column was set at 40 °C and that of the autosampler at 10 °C during the UPLC analysis. The injection volume was 3.5 µl. Metabolites were quantified using their peak area at the wavelength specified in Table 1, using calibration curves of available reference compounds. Metabolites were identified by comparing their retention time (RT) and UV spectrum to those of reference chemicals on UPLC. When reference chemicals were not available, metabolite identification by gas chromatography-triple quadrupole mass spectrometry (GC–MS/MS) was performed. The minor metabolites were identified by elution time and mass spectra both on UPLC and GC–MS/MS, and by comparison with available elution and spectral information from the literature.
(§3) The metabolite concentrations in the microsomal incubation mixtures as quantified by UPLC were used to calculate the rate of the enzymatic conversions in pmol/min/mg microsomal protein. The kinetic parameters KM and Vmax were obtained using a nonlinear regression curve fit applying the Michaelis Menten equation in GraphPad Prism 5 (San Diego, USA). To compare the catalytic efficiency of formation of the different metabolites the intrinsic clearance (Clint) was calculated as Vmax divided by KM.
Background: Microsomes from liver hold many membrane-bound enzymes, among them those of drug oxidation.

Data set [2] deals with human liver microsomes (HLM). Briefly: Human liver microsomal incubation, metabolite formation quantified by UPLC. To be noted: HLM. Here is the method:
as §1, §2, §3

The test system of a further data set is mouse skin. The arrangement: method as in Buening et al. [1979]; LaVoie et al. [1981]. As to conditions: mouse skin painting; ref Buening et al. [1979]; LaVoie et al. [1981]; cited from earlier work.
Data set [3] deals with Salmonella typhimurium TA98. Description: Reverse mutation assay (Ames test), TA98. To be noted: for Increase in the number of revertants compared to the concurrent solvent control: TA98, presence of 5% S9-mix, 10–100 µg; for Mutagenicity (conclusion): TA98, positive if more than threefold over control; for His + revertant colonies TA98 without S9-mix: mean ± SD of 3 plates. Here is the method:
Six concentrations of each compound were tested in triplicate in the absence and presence of 5% (v/v) S9-mix prepared from the livers of Aroclor 1254 treated Sprague–Dawley rats. The S9-mix contained 4 mM NADP, 5.8 mM glucose-6-phosphate, 0.1 M sodium phosphate pH 7.4, 8 mM MgCl2, 33 mM KCl and 5% S9 homogenate. Fresh bacterial cultures were prepared overnight to reach 10^9 cells/ml. The following solutions were pre-incubated in a rotating incubator at 70 rpm and 37 °C, and contained either 0.5 ml S9-mix (in case of S9 presence) or 0.5 ml 0.1 M potassium phosphate pH 7.4 (in case of S9 absence), 0.1 ml of a fresh bacterial culture (10^9 cells/ml) of TA98 or TA100, […] Top agar was melted and heated to 45 °C. After preincubation, the substrate solutions were added to 3 ml of the molten top agar and mixed by vortexing and the top agar mixture was poured onto a minimal glucose agar plate. After solidification of the top agar, the plates were incubated at 37 °C for 48 h. The number of revertant colonies per plate was automatically counted with the Instem Sorcerer Colony Counter (Staffordshire, UK). In the absence of S9-mix, 2-nitrofluorene (NF) and methylmethanesulfonate (MMS) were tested as positive controls for incubations with TA98 and TA100, respectively. In the presence of S9-mix, 2-aminoanthracene (2AA) was tested as a positive control in both TA98 and TA100. DMSO was tested as a solvent control in both tester strains.
For orientation: The Ames test uses bacterial strains that need an amino acid and regain growth without it when mutated back.

Data set [4] deals with Salmonella typhimurium TA100. Description: Reverse mutation assay (Ames test), TA100. To be noted: for His + revertant colonies TA100 without S9-mix: mean ± SD of 3 plates; for Cytotoxicity at the test doses: TA100, absence of S9 mix; for Increase in the number of revertants compared to the concurrent solvent control: TA100, presence of 5% S9-mix, 10–100 µg; for Mutagenicity (conclusion): TA100, positive if more than twofold over control. Here is the method:
Six concentrations of each compound were tested in triplicate in the absence and presence of 5% (v/v) S9-mix prepared from the livers of Aroclor 1254 treated Sprague–Dawley rats. The S9-mix contained 4 mM NADP, 5.8 mM glucose-6-phosphate, 0.1 M sodium phosphate pH 7.4, 8 mM MgCl2, 33 mM KCl and 5% S9 homogenate. Fresh bacterial cultures were prepared overnight to reach 10^9 cells/ml. The following solutions were pre-incubated in a rotating incubator at 70 rpm and 37 °C, and contained either 0.5 ml S9-mix (in case of S9 presence) or 0.5 ml 0.1 M potassium phosphate pH 7.4 (in case of S9 absence), 0.1 ml of a fresh bacterial culture (10^9 cells/ml) of TA98 or TA100, and 10–100 µg test compound. Top agar was melted and heated to 45 °C. After preincubation, the substrate solutions were added to 3 ml of the molten top agar and mixed by vortexing and the top agar mixture was poured onto a minimal glucose agar plate. After solidification of the top agar, the plates were incubated at 37 °C for 48 h. The number of revertant colonies per plate was automatically counted with the Instem Sorcerer Colony Counter (Staffordshire, UK). In the absence of S9-mix, 2-nitrofluorene (NF) and methylmethanesulfonate (MMS) were tested as positive controls for incubations with TA98 and TA100, respectively. In the presence of S9-mix, 2-aminoanthracene (2AA) was tested as a positive control in both TA98 and TA100. DMSO was tested as a solvent control in both tester strains.

For the compound `Cc1ccc2c(ccc3ccccc32)c1` [2-Methylphenanthrene], in data set [1] (substrate 2-Methylphenanthrene), the “Vmax, formation of 2-(Hydroxymethyl)-phennathrene RT = 5.59 min” value is given as 2174 ± 115.3 pmol/min/mg microsomal protein; the “Vmax, formation of 2-Methylphenanthrol RT = 6.98 min” value was 76.0 ± 3.1 pmol/min/mg microsomal protein; the “Vmax, formation of 2-Methylphenanthrol RT = 7.08 min” value was 11.2 ± 0.9 pmol/min/mg microsomal protein; the “Vmax, formation of Dihydro-2-methylphenanthrene-diol RT = 4.26 min” value is listed as 23.1 ± 2.7 pmol/min/mg microsomal protein. Also, in data set [1] (substrate 2-Methylphenanthrene), the “Vmax, formation of Dihydro-2-methylphenanthrene-diol RT = 4.42 min” value is recorded as 16.2 ± 2.5 pmol/min/mg microsomal protein. For the same compound, the “Vmax, formation of 2-Methylphenanthrol RT = 6.12 min” value in data set [1] (substrate 2-Methylphenanthrene, KM NA) is recorded as 90.7 ± 3.8 pmol/min/mg microsomal protein. In data set [2] (substrate 2-Methylphenanthrene), the “Vmax, formation of 2-(Hydroxymethyl)-phennathrene RT = 5.59 min” value was 562.0 ± 27.5 pmol/min/mg microsomal protein; the “Vmax, formation of 2-Methylphenanthrol RT = 6.12 min” value is 16.3 ± 0.8 pmol/min/mg microsomal protein; the “Vmax, formation of Dihydro-2-methylphenanthrene-diol RT = 3.09 min” value is on record as 6.4 ± 0.5 pmol/min/mg microsomal protein. In addition, in the data set on mouse skin, the Tumor-initiating activity result was “neither phenanthrene nor its monomethylated analogs”. Moreover, in data set [3], the “Increase in the number of revertants compared to the concurrent solvent control” value (from here on “Increase in the number of revertants”) turned out to be 2.2 fold and the “Mutagenicity (conclusion)” value is listed as “non-mutagenic”. Moreover, the “His + revertant colonies TA100 without S9-mix” value in data set [4] (10 µg/plate) was determined as 106±20. For the same compound, the “His + revertant colonies TA100 without S9-mix” value in data set [4] (20 µg/plate) was 98±13. Moreover, in data set [4] (40 µg/plate), the “His + revertant colonies TA100 without S9-mix” value worked out at 70±8. Besides, in data set [4], the “Cytotoxicity at the test doses” value was “showed cytotoxicity”, the “Increase in the number of revertants” value was “no increased response was found” and the “Mutagenicity (conclusion)” value was “non-mutagenic”.

Turning to `Cc1ccc2ccc3ccccc3c2c1` [3-Methylphenanthrene], the “Vmax, formation of 3-(Hydroxymethyl)-phenanthrene RT = 5.62 min” value in data set [1] (substrate 3-Methylphenanthrene) is recorded as 2593 ± 305 pmol/min/mg microsomal protein; in data set [2] (substrate 3-Methylphenanthrene), 583.8 ± 19.6 pmol/min/mg microsomal protein. Moreover, the “Vmax, formation of 3-Methylphennathrol RT = 6.98 min” value in data set [1] (substrate 3-Methylphenanthrene) is listed as 82.6 ± 53.8 pmol/min/mg microsomal protein. The “Vmax, formation of Dihydro-3-methylphenanthrene-diol RT = 4.25 min” value in data set [1] (substrate 3-Methylphenanthrene) is 92.3 ± 25.1 pmol/min/mg microsomal protein; in data set [2] (substrate 3-Methylphenanthrene), 65.0 ± 4.1 pmol/min/mg microsomal protein. Also, the “Vmax, formation of Dihydro-3-methylphenanthrene-diol RT = 4.42 min” value is reported as 20.4 ± 1.7 pmol/min/mg microsomal protein in data set [1] (substrate 3-Methylphenanthrene) and 12.8 ± 0.8 pmol/min/mg microsomal protein in data set [2] (substrate 3-Methylphenanthrene). The Tumor-initiating activity result in the data set with mouse skin was “neither phenanthrene nor its monomethylated analogs”. In addition, the “His + revertant colonies TA98 without S9-mix” value is on record as 16±3 in data set [3] (2 µg/plate); 17±4 in data set [3] (4 µg/plate); 14±1 in data set [3] (10 µg/plate); 13±2 in data set [3] (20 µg/plate); 9±4 in data set [3] (40 µg/plate). Besides, the “Cytotoxicity at the test doses” value in data set [3] (TA98, absence of S9 mix) is “showed cytotoxicity”; in data set [4] it was “showed cytotoxicity”. Further, the “Increase in the number of revertants” value in data set [3] is reported as 2.2 fold; in data set [4] it was “no increased response was found”. The “Mutagenicity (conclusion)” value in data set [3] and in data set [4] was “non-mutagenic” throughout. Also, the Bacterial background lawn result in data set [3] (TA98 without S9-mix, 40 µg/plate) is listed as “S”. The “His + revertant colonies TA100 without S9-mix” value in data set [4] (2 µg/plate) turned out to be 112±14; in data set [4] (4 µg/plate) it was 112±9; in data set [4] (10 µg/plate), 119±11; in data set [4] (20 µg/plate), 83±34; in data set [4] (40 µg/plate), 75±4.
